In ChEMBL document CHEMBL5518237, “Design of Novel 2-Phenylquinazolin-4-amines as Selective CYP1B1 Inhibitors for Overcoming Paclitaxel Resistance in A549 Cells” (J Med Chem, 2024):
The source made the active and inactive calls. No cut-off for these calls is given here.

Columns and labels:
A549 [1] = test: Reversal of DMBA-stimulated PTX resistance in human A549 cells assessed as decrease in cell viability at 1.25 to 10 uM incubated for 24 hrs in presence of DMBA and paclitaxel by MTT assay; assay type: functional, cell-based; conditions: dose 1.25-10 µM
A549 [2] = test: Inhibition of tumor metastasis in DMBA-stimulated PTX resistant human A549 cells assessed as inhibition of cell migration by measuring decrease in crawling ability of cells at 2.5 to 10 uM incubated for 48 hrs by wound healing assay; assay type: functional, cell-based; conditions: dose 2.5-10 µM
Cytochrome P450 1B1 = biological target: T1, Cytochrome P450 1B1 (Homo sapiens, UniProt Q16678); test: Inhibition of human recombinant CYP1B1 using 7-ethoxyresorufin as substrate preincubated with enzyme for 5 mins followed by fluorescent substrate and NADPH addition and measured after 35 mins by EROD assay; assay type: ADME
T1 sequence (Q16678 whole entry): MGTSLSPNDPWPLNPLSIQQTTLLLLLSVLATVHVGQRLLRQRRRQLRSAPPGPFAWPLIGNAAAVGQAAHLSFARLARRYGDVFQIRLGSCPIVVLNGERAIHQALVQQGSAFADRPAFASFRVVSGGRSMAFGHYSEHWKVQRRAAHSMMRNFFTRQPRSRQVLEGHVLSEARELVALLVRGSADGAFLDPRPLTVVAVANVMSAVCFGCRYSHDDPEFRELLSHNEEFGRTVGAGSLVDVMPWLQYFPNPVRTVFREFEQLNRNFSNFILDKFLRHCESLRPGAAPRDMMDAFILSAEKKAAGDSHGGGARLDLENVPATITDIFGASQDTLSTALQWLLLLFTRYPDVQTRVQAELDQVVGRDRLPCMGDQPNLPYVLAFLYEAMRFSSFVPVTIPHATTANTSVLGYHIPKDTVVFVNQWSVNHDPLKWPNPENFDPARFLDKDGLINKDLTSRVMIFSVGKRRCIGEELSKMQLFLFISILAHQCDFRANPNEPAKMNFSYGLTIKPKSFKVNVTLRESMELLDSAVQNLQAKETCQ

Cytochrome P450 1A1 = biological target: T2, Cytochrome P450 1A1 (Homo sapiens, UniProt P04798); test: Inhibition of human recombinant CYP1A1 using 7-ethoxyresorufin as substrate preincubated with enzyme for 5 mins followed by fluorescent substrate and NADPH addition and measured after 15 mins by EROD assay; assay type: ADME
T2 sequence (P04798 whole entry): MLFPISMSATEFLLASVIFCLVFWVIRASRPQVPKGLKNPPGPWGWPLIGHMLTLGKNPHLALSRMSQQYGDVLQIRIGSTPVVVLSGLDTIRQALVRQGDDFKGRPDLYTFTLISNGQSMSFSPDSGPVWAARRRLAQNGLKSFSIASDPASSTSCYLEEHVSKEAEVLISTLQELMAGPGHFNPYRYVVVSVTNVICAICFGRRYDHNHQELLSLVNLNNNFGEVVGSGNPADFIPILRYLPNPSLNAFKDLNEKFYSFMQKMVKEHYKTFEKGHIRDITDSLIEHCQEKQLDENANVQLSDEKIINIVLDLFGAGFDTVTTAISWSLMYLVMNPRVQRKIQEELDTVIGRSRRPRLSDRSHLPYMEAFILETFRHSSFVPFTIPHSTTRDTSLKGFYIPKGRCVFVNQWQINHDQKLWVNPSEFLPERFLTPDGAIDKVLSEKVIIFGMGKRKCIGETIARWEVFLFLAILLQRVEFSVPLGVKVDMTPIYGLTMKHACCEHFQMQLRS

Cytochrome P450 1A2 = biological target: T3, Cytochrome P450 1A2 (Homo sapiens, UniProt P05177); test: Inhibition of human recombinant CYP1A2 using 7-ethoxyresorufin as substrate preincubated with enzyme for 5 mins followed by fluorescent substrate and NADPH addition and measured after 50 mins by EROD assay; assay type: ADME
T3 sequence (P05177 whole entry): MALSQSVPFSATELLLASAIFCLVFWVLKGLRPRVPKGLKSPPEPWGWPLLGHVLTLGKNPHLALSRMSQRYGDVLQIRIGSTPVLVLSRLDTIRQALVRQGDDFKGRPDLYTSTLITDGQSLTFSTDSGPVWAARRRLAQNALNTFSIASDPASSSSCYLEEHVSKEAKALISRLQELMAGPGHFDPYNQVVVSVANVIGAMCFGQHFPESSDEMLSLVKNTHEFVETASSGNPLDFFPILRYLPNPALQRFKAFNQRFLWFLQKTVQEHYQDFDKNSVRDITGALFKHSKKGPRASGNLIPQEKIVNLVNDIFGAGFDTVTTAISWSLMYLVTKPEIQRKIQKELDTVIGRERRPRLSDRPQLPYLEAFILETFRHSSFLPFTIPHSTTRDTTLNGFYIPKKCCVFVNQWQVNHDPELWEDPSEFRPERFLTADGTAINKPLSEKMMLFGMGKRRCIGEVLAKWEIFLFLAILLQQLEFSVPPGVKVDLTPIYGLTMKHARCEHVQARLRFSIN

[3] = Selectivity ratio of IC50 for Inhibition of human recombinant CYP1A1 to IC50 for Inhibition of human recombinant CYP1B1; assay type: ADME; conditions: recombinant enzyme
[4] = (§1) Selectivity ratio of IC50 for Inhibition of human recombinant CYP1A2 to IC50 for Inhibition of human recombinant CYP1B1; assay type: ADME; conditions: recombinant enzyme
[5] = n-Octanol/PBS partition coefficient, log D of the radiolabeled compound at 0.37 MBq at pH 7.4 by gamma-counting analysis; assay type: physicochemical
[6] = Drug uptake in human HCT-116 cells using radiolabeled compound at 0.037 MBq incubated for 120 mins by gamma-counting analysis; assay type: ADME, cell-based; conditions: hct-116, 2 h
[7] = Drug uptake in human A549 cells using radiolabeled compound at 0.037 MBq incubated for 120 mins by gamma-counting analysis; assay type: ADME, cell-based; conditions: a549, 2 h
[8] = Drug uptake in human HEK293T cells using radiolabeled compound at 0.037 MBq incubated for 120 mins by gamma-counting analysis; assay type: ADME, cell-based; conditions: hek-293t, 2 h
CYP1A2 versus CYP1B1 = test: as §1; assay type: ADME; conditions: recombinant CYP1A2 and recombinant CYP1B1, read-out: Ratio IC50
CYP1B1 [9] = biological target: T4, CYP1B1 (Homo sapiens, UniProt Q16678); test: Inhibition of human recombinant CYP1B1 using 7-ethoxyresorufin as substrate at 0.01 uM preincubated with enzyme for 5 mins followed by fluorescent substrate and NADPH addition and measured after 35 mins by EROD assay; assay type: ADME; conditions: recombinant CYP1B1, probe 7-ethoxyresorufin, time 40 min
T4 sequence (Q16678 whole entry): T1 sequence (Q16678 whole entry)

CYP1B1 [10] = biological target: T4, CYP1B1; test: Inhibition of human recombinant CYP1B1 using 7-ethoxyresorufin as substrate at 1 uM preincubated with enzyme for 5 mins followed by fluorescent substrate and NADPH addition and measured after 35 mins by EROD assay; assay type: ADME; conditions: recombinant CYP1B1, probe 7-ethoxyresorufin, time 40 min
[11] = n-Octanol/water partition coefficient, logP of the compound by HPLC analysis; assay type: physicochemical; conditions: n-octanol/water; read-out: logP
A549 [12] = test: Cytotoxicity against human A549 cells assessed as reduction in cell viability at 0.625 to 20 uM incubated for 48 hrs by MTT assay; assay type: toxicity, cell-based; conditions: a549, 48 h, dose 0.625-20 µM
HEK-293T = test: Cytotoxicity against human HEK293T cells assessed as reduction in cell viability at 0.625 to 20 uM incubated for 48 hrs by MTT assay; assay type: toxicity, cell-based; conditions: dose 0.625-20 µM
A549 [13] = test: Induction of apoptosis in DMBA-stimulated PTX resistant human A549 cells assessed as apoptosis rate at 5 uM incubated for 24 hrs by flow cytometry (reference value: 6.67 +/- 1.03%); assay type: functional
[14] = Drug uptake in human HCT-116 cells using radiolabeled compound at 0.037 MBq incubated for 240 mins by gamma-counting analysis; assay type: ADME, cell-based; conditions: hct-116, 4 h
[15] = Drug uptake in Kunming mouse intestine assessed as radioactive accumulation treated with radiolabeled compound at 0.37 MBq, iv measured after 120 mins by gamma-counting analysis; assay type: ADME, organism-based; conditions: in vivo, 2 h
[16] = Drug uptake in Kunming mouse lungs assessed as radioactive accumulation treated with radiolabeled compound at 0.37 MBq, iv measured after 120 mins by gamma-counting analysis; assay type: ADME, organism-based, Lung; conditions: in vivo, 2 h
[17] = Drug uptake in Kunming mouse kidney assessed as radioactive accumulation treated with radiolabeled compound at 0.37 MBq, iv measured after 120 mins by gamma-counting analysis; assay type: ADME, organism-based; conditions: in vivo, 2 h
[18] = Drug uptake in Kunming mouse thyroid assessed as radioactive accumulation treated with radiolabeled compound at 0.37 MBq, iv measured after 120 mins by gamma-counting analysis; assay type: ADME, organism-based, Thyroid gland; conditions: in vivo, 2 h
[19] = Drug uptake in intestine of mouse xenografted with human HCT-116 cells assessed as radioactive accumulation treated with radiolabeled compound at 0.37 MBq, iv measured after 240 mins by gamma-counting analysis; assay type: ADME, organism-based; conditions: in vivo, 4 h
[20] = Drug uptake in liver of mouse xenografted with human HCT-116 cells assessed as radioactive accumulation treated with radiolabeled compound at 0.37 MBq, iv measured after 240 mins by gamma-counting analysis; assay type: ADME, organism-based; conditions: in vivo, 4 h
[21] = Drug uptake in kidney of mouse xenografted with human HCT-116 cells assessed as radioactive accumulation treated with radiolabeled compound at 0.37 MBq, iv measured after 240 mins by gamma-counting analysis; assay type: ADME, organism-based; conditions: in vivo, 4 h
[22] = Drug metabolism in mouse xenografted with human HCT-116 cells assessed as deiodination treated with radiolabeled compound at 0.37 MBq, iv measured after 240 mins by gamma-counting analysis; assay type: ADME, organism-based; conditions: 4 h
[23] = Drug uptake in HCT-116 cells bearing mouse assessed as ratio of radioactive accumulation in tumor to muscle treated with radiolabeled compound at 0.37 MBq, iv measured after 30 mins by gamma-counting analysis; assay type: ADME, organism-based; conditions: in vivo, 0.5 h
[24] = Drug uptake in HCT-116 cells bearing mouse assessed as ratio of radioactive accumulation in tumor to muscle treated with radiolabeled compound at 0.37 MBq, iv measured after 240 mins by gamma-counting analysis; assay type: ADME, organism-based; conditions: in vivo, 4 h
[25] = Drug metabolism in Kunming mouse assessed as deiodination treated with radiolabeled compound at 0.37 MBq, iv measured after 120 mins by gamma-counting analysis; assay type: ADME, organism-based; conditions: in vivo, 2 h
A549 [26] = test: Reversal of DMBA-stimulated PTX resistance in human A549 cells assessed as decrease in cell viability at 10 uM incubated for 24 hrs in presence of DMBA and paclitaxel by MTT assay; assay type: functional, cell-based
A549 [27] = test: Inhibition of tumor metastasis in DMBA-stimulated PTX resistant human A549 cells assessed as inhibition of cell migration at 10 uM incubated for 48 hrs by wound healing assay; assay type: functional, cell-based
A549 [28] = test: Inhibition of tumor metastasis in DMBA-stimulated PTX resistant human A549 cells assessed as inhibition of cell invasion at 10 uM incubated for 24 hrs by Transwell assay; assay type: functional, cell-based

| SMILES | IC50 (Cytochrome P450 1B1) | IC50 (Cytochrome P450 1A1) | IC50 (Cytochrome P450 1A2) | logD ([5]; n-octanol/PBS, read-out: logD) | Drug uptake [6] | Drug uptake [7] | Drug uptake [8] | inhibition at 35 min, 0.01 µM (CYP1B1 [9]) | inhibition at 35 min, 1 µM (CYP1B1 [10]) | Ratio IC50 [3] | Ratio IC50 [4] | Activity (A549 [13]) | other results |
| --- | --- | --- | --- | --- | --- | --- | --- | --- | --- | --- | --- | --- | --- |
| FCCNc1nc(-c2ccc(I)cc2)nc2ccccc12 [listing 1 of 2 here] |  |  |  |  |  |  |  |  |  |  |  |  | Activity (A549 [1]): Active; inhibition (A549 [2]): Active |
| CCNc1nc(-c2ccc(I)cc2)nc2ccccc12 | 0.000205 nM | 1.63 nM | 968 nM | 3.54 | Active | Active | Active |  |  | 7.95 10^5No_unit |  |  | selectivity ratio (CYP1A2 versus CYP1B1): 4.72e+06 |
| Nc1nc(-c2ccc(I)cc2)nc2ccccc12 |  | 5.74 nM | 1240 nM |  | Active | Active | Active |  |  | 287 | 6.23 10^4No_unit |  | logD ([5]; octanol/water): 3.24; Drug uptake [14]: 23.95%; Drug uptake [15]: Active; Drug uptake [16]: Active; Drug uptake [17]: Active; Drug uptake [18]: Active; Drug uptake [19]: Active; Drug uptake [20]: Active; Drug uptake [21]: Active; Drug metabolism [22]: Metabolite_Notdetected; Ratio [23]: 1.27; Ratio [24]: 1.84; Drug metabolism [25]: Metabolite_Notdetected |
| O=c1cc(-c2ccccc2)oc2c1ccc1ccccc12 [ALPHA-NAPHTHOFLAVONE] |  | 86.7 nM |  |  |  |  |  | 61% | 95.1% |  |  | 15.53% | Activity (A549 [26]): Active; inhibition (A549 [27]): Active; inhibition (A549 [28]): Active |

Continued by falling IC50 (Cytochrome P450 1A1), values first:

| IC50 (Cytochrome P450 1B1) | IC50 (Cytochrome P450 1A1) | IC50 (Cytochrome P450 1A2) | logD ([5]; n-octanol/PBS, read-out: logD) | Drug uptake [6] | Drug uptake [7] | Drug uptake [8] | inhibition at 35 min, 0.01 µM (CYP1B1 [9]) | inhibition at 35 min, 1 µM (CYP1B1 [10]) | SMILES | Ratio IC50 [3] | Ratio IC50 [4] | Activity (A549 [13]) | other results |
| --- | --- | --- | --- | --- | --- | --- | --- | --- | --- | --- | --- | --- | --- |
|  | 85.8 nM | 1500 nM |  |  |  |  | 93.7% | 95.2% | CCNc1nc(-c2ccc(I)cc2)nc2ccccc12.Cl | 2.07 10^6No_unit |  | 26.15% | logP [11]: 3.81; Activity (A549 [12]): Non-Toxic; Activity (HEK-293T): Non-Toxic |
| 0.24 nM | 36.7 nM | 727 nM | 3.34 | Active | Active | Active |  |  | FCCNc1nc(-c2ccc(I)cc2)nc2ccccc12 [listing 2 of 2 here] | 151.87 | 3029.17 |  |  |
